According to patent US20200368249A1 (priority 2017, published 2020):
pIC50: −log10 of the molar value. “And” between values parts separate entries of the source, which are not always exact repeats. Equal entries are not always repeated.

Key:
Mtb-lux = type: cell-based, M. tuberculosis CDC1551
Mab 390S-lux = type: cell-based, M. abscessus 390S
[1] = test system: J774A.1 macrophage cell line; assay: cytotoxicity assay (resazurin); type: cell-based; details: J774 macrophages, 24 h
Description: Cytotoxicity was assessed on J774A.1 (ATCC® TIB67™) macrophage cell line. Macrophages were cultured in Dulbecco's Modified Eagle Medium (DMEM, GIBCO) supplemented with 10% heat inactivated fetal calf serum (Atlanta Biologicals), 1 mM sodium pyruvate (CellGro), 2 mM L-glutamine (CORNING) and 1% PenStrep (100 U/mL Penicillin, […] Streptomycin, GIBCO). Macrophages were seeded in a 384-well black transparent bottom plate (Corning) at 2.5×10^4 cells/well. After macrophages were allowed to adhere for 4-6 h, a two-fold dilution series of the compounds (200-0.006 μM) and controls (2% Triton X and 0.5% DMSO) were added to the wells. The plate was incubated for 24 h and then 1/10th volume of resazurin dye was added. Fluorescence was measured following 4 h incubation with the dye at an excitation of 560 nm and emission at 590 nm with cell viability indicated by conversion of resazurin to fluorescent product resofurin. Viability is determined as percent growth calculated relative to the DMSO control.

Mtb CDC1551 = assay: time-kill kinetic assay, Mtb; type: cell-based, M. tuberculosis; details: for mode of action against Mtb: actively replicating Mtb
Description: To examine whether bacterial killing is concentration and/or time-dependent, a time-kill kinetic study was carried out with 8, 10, 11, 14, and 15. For Mtb, CDC1551 cultures diluted to an OD of 0.01 in 7H9 were added to a solid-white 384-well plate containing compounds at final concentrations of 0, 1×, 4× and 8× MIC in a total volume of 30 μl. DMSO control was also included. The plate was incubated for 6 days for Mtb. At every time point-0, 24, 48 and 72 h post-inoculation, an aliquot was taken, serially diluted and 50 μl plated onto 7H10 quad-plates supplemented with OADC. Colonies were counted after 3-4 weeks of incubation at 37° C. and CFU/ml was calculated. […] The plate was incubated for 3 days and colonies were counted after 5 days of incubation following plating. A 1-2 log10 decrease in CFU/ml is considered bactericidal. Luminescence was also read at every time point before taking an aliquot for serial dilution.

MtbTopo1 = MtbTopo1 (Mycobacterium tuberculosis, UniProt P9WG49); assay: topoisomerase 1A relaxation assay, MtbTopo1; type: biochemical, M. tuberculosis
Description: (§1) In FIGS. 7A and 7B, R indicates relaxed circular DNA; PR indicates partially relaxed DNA; and SC indicates supercoiled DNA.

[2] = reductive demetallation by glutathione; type: physicochemical
tolerability of mice = type: in vivo; details: 400 mg/kg, preliminary work
EcTopo1 = EcTopo1 (Escherichia coli, UniProt P06612)
Description: as §1

E. coli gyrase = E. coli gyrase (Escherichia coli, UniProt P0AES4+P0AES6)
Description: (§2) In FIG. 8A-FIG. 8D, the IC50 was determined as the drug concentration which inhibited 50% of the supercoiling activity.

M. tuberculosis gyrase = M. tuberculosis gyrase (Mycobacterium tuberculosis, UniProt P9WG45+P9WG47)
Description: as §2

Mab = details: even at 32 and 64-fold MIC; cited from earlier work
Mtb = details: cited from earlier work

M. tuberculosis gyrase, sequence (P9WG45 whole entry, looked up): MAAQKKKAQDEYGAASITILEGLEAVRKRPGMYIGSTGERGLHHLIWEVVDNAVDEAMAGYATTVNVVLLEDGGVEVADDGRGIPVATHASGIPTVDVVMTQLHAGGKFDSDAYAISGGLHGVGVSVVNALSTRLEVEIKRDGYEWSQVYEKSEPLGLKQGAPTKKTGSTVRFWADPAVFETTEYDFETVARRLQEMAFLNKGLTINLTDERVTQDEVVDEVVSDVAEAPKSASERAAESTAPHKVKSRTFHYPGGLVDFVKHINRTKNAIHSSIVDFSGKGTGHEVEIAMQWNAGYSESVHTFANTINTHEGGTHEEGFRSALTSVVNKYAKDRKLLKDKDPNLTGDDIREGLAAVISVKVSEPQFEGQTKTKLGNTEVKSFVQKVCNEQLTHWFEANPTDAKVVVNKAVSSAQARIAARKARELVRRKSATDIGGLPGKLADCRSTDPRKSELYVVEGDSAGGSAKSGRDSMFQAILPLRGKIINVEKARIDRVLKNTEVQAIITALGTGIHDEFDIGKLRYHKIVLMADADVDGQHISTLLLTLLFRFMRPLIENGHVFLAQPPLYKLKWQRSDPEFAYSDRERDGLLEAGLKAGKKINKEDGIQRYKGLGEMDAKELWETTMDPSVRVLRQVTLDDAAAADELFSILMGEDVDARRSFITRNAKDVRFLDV
M. tuberculosis gyrase, sequence (P9WG47 whole entry, looked up): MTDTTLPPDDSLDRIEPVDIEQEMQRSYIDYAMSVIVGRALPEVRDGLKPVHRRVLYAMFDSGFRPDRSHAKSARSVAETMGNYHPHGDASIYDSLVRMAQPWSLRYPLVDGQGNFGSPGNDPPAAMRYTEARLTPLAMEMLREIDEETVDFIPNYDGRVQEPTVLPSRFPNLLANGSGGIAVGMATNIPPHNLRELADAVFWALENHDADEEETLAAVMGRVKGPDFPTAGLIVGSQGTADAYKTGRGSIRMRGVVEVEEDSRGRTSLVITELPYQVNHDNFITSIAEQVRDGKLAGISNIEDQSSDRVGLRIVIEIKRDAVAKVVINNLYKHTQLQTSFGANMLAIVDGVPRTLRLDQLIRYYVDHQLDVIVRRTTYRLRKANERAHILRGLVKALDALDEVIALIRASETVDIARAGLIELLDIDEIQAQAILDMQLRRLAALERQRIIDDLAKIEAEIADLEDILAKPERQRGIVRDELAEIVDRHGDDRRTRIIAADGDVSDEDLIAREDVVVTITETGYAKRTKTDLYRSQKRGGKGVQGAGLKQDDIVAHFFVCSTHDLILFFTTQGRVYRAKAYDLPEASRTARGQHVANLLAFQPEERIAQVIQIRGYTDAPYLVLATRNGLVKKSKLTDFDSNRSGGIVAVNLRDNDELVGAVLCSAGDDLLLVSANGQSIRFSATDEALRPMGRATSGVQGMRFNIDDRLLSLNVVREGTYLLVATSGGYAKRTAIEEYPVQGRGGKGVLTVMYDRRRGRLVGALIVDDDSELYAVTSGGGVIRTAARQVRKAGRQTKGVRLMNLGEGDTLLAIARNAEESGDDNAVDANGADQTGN
EcTopo1, sequence (P06612 whole entry): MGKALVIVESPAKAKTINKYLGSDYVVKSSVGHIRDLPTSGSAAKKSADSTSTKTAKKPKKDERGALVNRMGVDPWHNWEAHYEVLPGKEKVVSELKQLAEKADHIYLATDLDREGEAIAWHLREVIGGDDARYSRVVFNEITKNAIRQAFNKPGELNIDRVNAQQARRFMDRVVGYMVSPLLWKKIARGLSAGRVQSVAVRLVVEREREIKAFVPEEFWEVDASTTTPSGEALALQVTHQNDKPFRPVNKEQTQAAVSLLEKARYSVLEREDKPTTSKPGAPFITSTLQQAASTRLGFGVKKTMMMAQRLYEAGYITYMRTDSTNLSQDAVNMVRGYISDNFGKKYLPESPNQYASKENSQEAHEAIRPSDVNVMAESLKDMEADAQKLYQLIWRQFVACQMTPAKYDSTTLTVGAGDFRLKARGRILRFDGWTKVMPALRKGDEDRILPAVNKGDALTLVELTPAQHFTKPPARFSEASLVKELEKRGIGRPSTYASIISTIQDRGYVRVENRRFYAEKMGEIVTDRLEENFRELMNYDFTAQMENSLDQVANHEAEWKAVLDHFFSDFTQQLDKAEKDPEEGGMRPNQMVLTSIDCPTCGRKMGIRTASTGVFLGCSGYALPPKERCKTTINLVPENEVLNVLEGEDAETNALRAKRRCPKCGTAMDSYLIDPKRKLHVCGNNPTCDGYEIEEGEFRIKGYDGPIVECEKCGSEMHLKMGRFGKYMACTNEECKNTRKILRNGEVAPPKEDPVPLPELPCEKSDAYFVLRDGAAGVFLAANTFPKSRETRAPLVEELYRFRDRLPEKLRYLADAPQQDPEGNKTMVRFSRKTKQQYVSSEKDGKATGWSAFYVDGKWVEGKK
MtbTopo1, sequence (P9WG49 whole entry, looked up): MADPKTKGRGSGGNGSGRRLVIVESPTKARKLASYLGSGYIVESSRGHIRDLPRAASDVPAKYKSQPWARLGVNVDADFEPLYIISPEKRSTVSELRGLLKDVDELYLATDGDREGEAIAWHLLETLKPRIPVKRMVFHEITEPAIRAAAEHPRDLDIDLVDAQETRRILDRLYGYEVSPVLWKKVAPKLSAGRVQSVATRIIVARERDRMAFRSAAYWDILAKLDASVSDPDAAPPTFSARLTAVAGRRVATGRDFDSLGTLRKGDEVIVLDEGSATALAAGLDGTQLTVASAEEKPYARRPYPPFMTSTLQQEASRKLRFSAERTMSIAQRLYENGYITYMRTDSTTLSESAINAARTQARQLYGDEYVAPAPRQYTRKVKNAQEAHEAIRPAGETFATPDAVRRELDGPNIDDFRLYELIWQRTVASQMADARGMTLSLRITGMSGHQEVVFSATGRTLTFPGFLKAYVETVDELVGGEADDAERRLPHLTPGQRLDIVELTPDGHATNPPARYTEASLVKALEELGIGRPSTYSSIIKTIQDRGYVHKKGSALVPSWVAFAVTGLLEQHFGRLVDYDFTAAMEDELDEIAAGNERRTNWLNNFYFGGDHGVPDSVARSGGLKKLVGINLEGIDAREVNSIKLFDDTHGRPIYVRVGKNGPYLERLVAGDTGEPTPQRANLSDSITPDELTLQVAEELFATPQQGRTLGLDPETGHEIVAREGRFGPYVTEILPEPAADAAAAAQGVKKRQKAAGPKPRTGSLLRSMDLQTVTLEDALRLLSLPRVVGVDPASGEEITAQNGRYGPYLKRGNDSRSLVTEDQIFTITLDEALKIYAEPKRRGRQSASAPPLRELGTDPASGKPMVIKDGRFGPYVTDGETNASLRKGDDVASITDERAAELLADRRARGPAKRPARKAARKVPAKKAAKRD
E. coli gyrase, sequence (P0AES4 whole entry, one chain of several): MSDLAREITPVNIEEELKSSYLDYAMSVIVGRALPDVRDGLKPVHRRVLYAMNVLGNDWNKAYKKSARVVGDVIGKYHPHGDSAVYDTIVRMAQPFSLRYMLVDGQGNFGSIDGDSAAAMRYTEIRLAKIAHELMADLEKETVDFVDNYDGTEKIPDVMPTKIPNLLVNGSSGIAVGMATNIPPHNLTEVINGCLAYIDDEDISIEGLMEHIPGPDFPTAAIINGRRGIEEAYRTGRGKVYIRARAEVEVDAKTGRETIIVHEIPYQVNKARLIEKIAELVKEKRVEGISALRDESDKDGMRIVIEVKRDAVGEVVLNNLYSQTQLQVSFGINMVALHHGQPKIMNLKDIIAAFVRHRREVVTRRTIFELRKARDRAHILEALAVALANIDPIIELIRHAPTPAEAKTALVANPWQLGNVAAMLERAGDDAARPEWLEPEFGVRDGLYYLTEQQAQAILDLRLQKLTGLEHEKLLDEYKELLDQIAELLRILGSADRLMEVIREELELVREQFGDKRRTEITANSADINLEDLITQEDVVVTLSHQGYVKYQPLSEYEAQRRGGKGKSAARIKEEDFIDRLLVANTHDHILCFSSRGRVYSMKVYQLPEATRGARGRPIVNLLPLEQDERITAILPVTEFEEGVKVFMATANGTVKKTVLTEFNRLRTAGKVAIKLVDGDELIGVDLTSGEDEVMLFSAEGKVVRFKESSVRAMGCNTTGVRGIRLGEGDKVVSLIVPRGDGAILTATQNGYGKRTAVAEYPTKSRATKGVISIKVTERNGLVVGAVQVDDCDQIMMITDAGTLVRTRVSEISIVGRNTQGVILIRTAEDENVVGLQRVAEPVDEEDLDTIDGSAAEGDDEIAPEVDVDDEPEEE

In the case of `C1=NCCCN=Cc2ccc3[n]2[Au+][n]2c1ccc2-c1nc2ccccc2nc1-3.F[P-](F)(F)(F)(F)F` [Compound 8], the “MIC Mtb” value (Mtb-lux) was 2.72 µM, the “MIC Mab” value (Mab 390S-lux) was 849.41 µM and the pIC50 [1] was 4.31.
With `C1=NCCCCN=Cc2ccc3[n]2[Au+][n]2c1ccc2-c1nc2ccccc2nc1-3.F[P-](F)(F)(F)(F)F` [Compound 10] the “MIC Mtb” value (Mtb-lux) was 0.12 µM, the “MIC Mab” value (Mab 390S-lux) was 5.4 µM and 5.44 µM and the pIC50 [1] was 4.07. The “mode of action against Mtb” value (Mtb CDC1551) was “almost completely bacteriostatic”, the “decrease relative to vehicle control” value (Mtb CDC1551; at 64-fold MIC) was 1 log and the “inhibition of topoisomerase I (MtbTopo1 relaxation)” value (MtbTopo1) was “able to inhibit topoisomerase I”. For the same compound, the “loss of the Au(III) ion” value [2] was “cannot be lost since it is very tightly bound”, the tolerability (tolerability of mice) was “tolerated” and the “inhibition of topoisomerase I (EcTopo1 relaxation)” value (EcTopo1) was “able to inhibit topoisomerase I”. The “activity against topoisomerase II (E. coli gyrase supercoiling)” value (E. coli gyrase) was “neither had significant activity” and the “activity against topoisomerase II (M. tuberculosis gyrase supercoiling)” value (M. tuberculosis gyrase) was “neither had significant activity”.
For `ClC1CN=Cc2ccc3[n]2[Au+][n]2c(ccc2-c2nc4ccccc4nc2-3)C=NC1.F[P-](F)(F)(F)(F)F` (centres unmarked) [Compound 11], the “MIC Mtb” value (Mtb-lux) was 4.06 µM, the “MIC Mab” value (Mab 390S-lux) was 91.72 µM and the pIC50 [1] was 3.96. For the same compound, the “decrease in CFU/mL, early time-point” value (Mtb CDC1551; 24 h) was > 1 log and the “mode of action, latest time-point” value (Mtb CDC1551; 144 h, at 8, 4 and 2-fold MIC) was “bacteriostatic”.
For `CCOC1CN=Cc2ccc[n]2[Au+][n]2cccc2C=NC1.F[P-](F)(F)(F)(F)F` (centres unmarked) [Compound 15], the “MIC Mtb” value (Mtb-lux) was 4.61 µM, the “MIC Mab” value (Mab 390S-lux) was 13.05 µM and the pIC50 [1] was 4.31. For the same compound, the “mode of action against Mtb” value (Mtb CDC1551) was “rapid and potent bactericidal activity”.
In the case of `NCC[C@H](O)C(=O)N[C@@H]1C[C@H](N)[C@@H](O[C@H]2O[C@H](CN)[C@@H](O)[C@H](O)[C@H]2O)[C@H](O)[C@H]1O[C@H]1O[C@H](CO)[C@@H](O)[C@H](N)[C@H]1O` [amikacin], the “bactericidal activity against Mab in vitro” value (Mab) is listed as “poor bactericidal activity”.
For `CC(=O)OC[C@H]1O[C@@H]([S-])[C@H](OC(C)=O)[C@@H](OC(C)=O)[C@@H]1OC(C)=O.CCP(CC)CC.[Au+]` [auranofin], the “activity against Mtb” value (Mtb) is listed as “bactericidal”.
For `CC[C@H]1OC(=O)[C@H](C)[C@@H](O[C@H]2C[C@@](C)(OC)[C@@H](O)[C@H](C)O2)[C@H](C)[C@@H](O[C@@H]2O[C@H](C)C[C@H](N(C)C)[C@H]2O)[C@](C)(OC)C[C@@H](C)C(=O)[C@H](C)[C@@H](O)[C@]1(C)O` [clarithromycin], the “bactericidal activity against Mab in vitro” value (Mab) is given as “poor bactericidal activity”.
